The test relates to CD2F1 mice, L1210 leukemia ip, survival T/C. Nature of the test: NCI In Vivo Anticancer Drug Screen. Data for tumor model L1210 Leukemia (intraperitoneal) in CD2F1 (CDF1) mice. Conditions: higher = longer survival. The essentials: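 Activity against a transplanted murine tumor was judged by comparing the compound group with a vehicle group. The outcome in the treated animals was divided by that in the controls.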

Setting [1] is: endpoint: mean survival time, dose: 100.0 mg/kg/injection, schedule: Q01DX009 (ip), vehicle: saline with Tween-80.
The mark [2] stands for this setting: endpoint: mean survival time, dose: 100.0 mg/kg/injection, schedule: Q04DX003 (ip), vehicle: saline with Tween-80.
Where [3] appears, read: endpoint: mean survival time, dose: 200.0 mg/kg/injection, schedule: Q04DX003 (ip), vehicle: saline with Tween-80.
[4] abbreviates: endpoint: mean survival time, dose: 400.0 mg/kg/injection, schedule: Q04DX003 (ip), vehicle: saline with Tween-80.
Setting [5] is: endpoint: mean survival time, dose: 100.0 mg/kg/injection, schedule: Q01DX001 (ip), vehicle: saline.

Several values for one entry are separate records, joined by “and”; a condition that tells them apart may be missing. Identical values can stand only once. Toxic doses and inconclusive results are not listed.

As for `CCCN1COC(OCC)C(C)(C)C1` (stereo not given), the T/C reads like this: (endpoint: mean survival time, dose: 12.5 mg/kg/injection, schedule: Q01DX009 (ip), vehicle: saline with Tween-80) 112 % of control; (endpoint: mean survival time, dose: 12.5 mg/kg/injection, schedule: Q01DX009 (ip), vehicle: saline) 91 % of control; (endpoint: mean survival time, dose: 25.0 mg/kg/injection, schedule: Q01DX009 (ip), vehicle: saline with Tween-80) 100 % of control; (endpoint: mean survival time, dose: 25.0 mg/kg/injection, schedule: Q01DX009 (ip), vehicle: saline) 100 % of control; (endpoint: mean survival time, dose: 50.0 mg/kg/injection, schedule: Q01DX009 (ip), vehicle: saline with Tween-80) 107 % of control; (endpoint: mean survival time, dose: 50.0 mg/kg/injection, schedule: Q01DX009 (ip), vehicle: saline) 103 % of control. Also, the T/C runs as follows: under setting [1], 114 % of control; (endpoint: mean survival time, dose: 100.0 mg/kg/injection, schedule: Q01DX009 (ip), vehicle: saline) 97 % of control; (endpoint: mean survival time, dose: 200.0 mg/kg/injection, schedule: Q01DX009 (ip), vehicle: saline with Tween-80) 106 % of control; (endpoint: mean survival time, dose: 200.0 mg/kg/injection, schedule: Q01DX009 (ip), vehicle: saline) 109 % of control.

As to `CCC(O)C[As](=O)(O)c1ccccc1Cl` (stereo not given), the T/C was 107 % of control (endpoint: mean survival time, dose: 6.25 mg/kg/injection, schedule: Q04DX003 (ip), vehicle: saline with Tween-80); 98 % of control (endpoint: mean survival time, dose: 12.5 mg/kg/injection, schedule: Q04DX003 (ip), vehicle: saline with Tween-80); 104 % of control (endpoint: mean survival time, dose: 25.0 mg/kg/injection, schedule: Q04DX003 (ip), vehicle: saline with Tween-80).

For `O=C(O)/C=C/C(=O)Nc1cc2c(cc1Br)-c1ccccc1C2O` (stereo not given), the T/C runs as follows: under setting [2], 100 % of control; under setting [3], 102 % of control; under setting [4], 94 % of control.

Take `Nc1nc(Cl)c2[nH]cnc2n1`: the T/C by setting is: (endpoint: mean survival time, dose: 13.3 mg/kg/injection, schedule: Q01DX009 (ip), vehicle: saline with Tween-80) 153 % of control; (endpoint: mean survival time, dose: 44.0 mg/kg/injection, schedule: Q01DX009 (ip), vehicle: saline with Tween-80) 151 % of control and 154 % of control; (endpoint: mean survival time, dose: 60.0 mg/kg/injection, schedule: Q04DX003 (ip), vehicle: saline with Tween-80) 181 % of control; (endpoint: mean survival time, dose: 66.0 mg/kg/injection, schedule: Q01DX009 (ip), vehicle: saline with Tween-80) 100 % of control; (endpoint: mean survival time, dose: 75.0 mg/kg/injection, schedule: Q04DX003 (ip), vehicle: saline with Tween-80) 160 % of control; (endpoint: mean survival time, dose: 88.0 mg/kg/injection, schedule: Q01DX009 (ip), vehicle: saline with Tween-80) 116 % of control. The T/C was 111 % of control under setting [1]; 113 % of control (endpoint: mean survival time, dose: 132.0 mg/kg/injection, schedule: Q01DX009 (ip), vehicle: saline with Tween-80); 86 % of control (endpoint: mean survival time, dose: 150.0 mg/kg/injection, schedule: Q01DX009 (ip), vehicle: saline with Tween-80); 156 % of control and 168 % of control (endpoint: mean survival time, dose: 150.0 mg/kg/injection, schedule: Q04DX003 (ip), vehicle: saline with Tween-80); 122 % of control under setting [3]; 111 % of control (endpoint: mean survival time, dose: 300.0 mg/kg/injection, schedule: Q01DX009 (ip), vehicle: saline with Tween-80).

In the case of `Cc1ccc(-c2nc(-c3ccccc3)[nH]c(=O)c2CCO)cc1`, the T/C under setting [2] is 94 % of control, the T/C under setting [3] was 92 % of control and the T/C under setting [4] is 88 % of control.

As to `CC12CCC(=O)C=C1CCC1C2CCC2(C)C1CCC2(O)C(=O)Cn1c(=O)[nH]cc(F)c1=O` (stereo not given), the T/C reads like this: (endpoint: mean survival time, dose: 12.5 mg/kg/injection, schedule: Q04DX003 (ip), vehicle: Klucel (hydroxypropylcellulose) (HPC)) 93 % of control; (endpoint: mean survival time, dose: 25.0 mg/kg/injection, schedule: Q04DX003 (ip), vehicle: Klucel (hydroxypropylcellulose) (HPC)) 96 % of control; (endpoint: mean survival time, dose: 50.0 mg/kg/injection, schedule: Q04DX003 (ip), vehicle: Klucel (hydroxypropylcellulose) (HPC)) 93 % of control; (endpoint: mean survival time, dose: 100.0 mg/kg/injection, schedule: Q04DX003 (ip), vehicle: Klucel (hydroxypropylcellulose) (HPC)) 100 % of control; (endpoint: mean survival time, dose: 200.0 mg/kg/injection, schedule: Q04DX003 (ip), vehicle: Klucel (hydroxypropylcellulose) (HPC)) 96 % of control.

Regarding `Nc1nc2nc(-c3ccccc3)nc(N)c2nc1-c1ccc(N(CCO)CCO)cc1`, the T/C was 100 % of control (endpoint: mean survival time, dose: 45.0 mg/kg/injection, schedule: Q01DX001 (ip), vehicle: saline); 97 % of control (endpoint: mean survival time, dose: 67.0 mg/kg/injection, schedule: Q01DX001 (ip), vehicle: saline); 97 % of control under setting [5]; 96 % of control (endpoint: mean survival time, dose: 150.0 mg/kg/injection, schedule: Q01DX001 (ip), vehicle: saline).

Consider `NC(=S)N/N=C/c1ccc(OC(=O)COc2cc(Cl)c(Cl)cc2Cl)cn1`, for which the T/C was 122 % of control (endpoint: mean survival time, dose: 100.0 mg/kg/injection, schedule: Q04DX002 (ip), vehicle: saline with Tween-80); 114 % of control (endpoint: mean survival time, dose: 200.0 mg/kg/injection, schedule: Q04DX002 (ip), vehicle: saline with Tween-80); 122 % of control (endpoint: mean survival time, dose: 400.0 mg/kg/injection, schedule: Q04DX002 (ip), vehicle: saline with Tween-80).

Consider `O=[N+]([O-])c1ccc(S(=O)(=O)O)cc1`, for which the T/C by setting is: under setting [5], 95 % of control; (endpoint: mean survival time, dose: 200.0 mg/kg/injection, schedule: Q01DX001 (ip), vehicle: saline) 105 % of control; (endpoint: mean survival time, dose: 400.0 mg/kg/injection, schedule: Q01DX001 (ip), vehicle: saline) 100 % of control.

For the compound `O=C1NC(=O)C2(CCc3ccc(N(CCCl)CCCl)cc32)N1` (stereo not given), the T/C (endpoint: mean survival time, dose: 6.25 mg/kg/injection, schedule: Q01DX009 (ip), vehicle: Klucel (hydroxypropylcellulose) (HPC)) was 117 % of control; the T/C (endpoint: mean survival time, dose: 6.25 mg/kg/injection, schedule: Q01DX009 (oral), vehicle: saline with Tween-80) is 96 % of control and 97 % of control; the T/C (endpoint: mean survival time, dose: 12.5 mg/kg/injection, schedule: Q01DX009 (oral), vehicle: saline with Tween-80) was 100 % of control and 105 % of control; the T/C (endpoint: mean survival time, dose: 25.0 mg/kg/injection, schedule: Q01DX009 (ip), vehicle: Klucel (hydroxypropylcellulose) (HPC)) was 154 % of control and 157 % of control; the T/C (endpoint: mean survival time, dose: 25.0 mg/kg/injection, schedule: Q01DX009 (oral), vehicle: saline with Tween-80) was 102 % of control and 104 % of control; the T/C (endpoint: mean survival time, dose: 50.0 mg/kg/injection, schedule: Q01DX009 (ip), vehicle: Klucel (hydroxypropylcellulose) (HPC)) was 122 % of control and 103 % of control. Besides, the T/C by setting is: (endpoint: mean survival time, dose: 50.0 mg/kg/injection, schedule: Q01DX009 (oral), vehicle: saline with Tween-80) 100 % of control and 104 % of control; (endpoint: mean survival time, dose: 100.0 mg/kg/injection, schedule: Q01DX009 (ip), vehicle: Klucel (hydroxypropylcellulose) (HPC)) 97 % of control; (endpoint: mean survival time, dose: 100.0 mg/kg/injection, schedule: Q01DX009 (oral), vehicle: saline with Tween-80) 107 % of control and 109 % of control; (endpoint: mean survival time, dose: 200.0 mg/kg/injection, schedule: Q01DX009 (oral), vehicle: saline with Tween-80) 106 % of control and 110 % of control.

`COc1cccc2c1C(=O)c1c(O)c3c(c(O)c1C2=O)C[C@@](O)(C(C)=O)C[C@@H]3OC1CC(N(C)C)C(O)C(C)O1` (stereo not given in full): the T/C (endpoint: mean survival time, dose: 0.25 mg/kg/injection, schedule: Q01DX009 (ip), vehicle: saline) is 109 % of control; the T/C (endpoint: mean survival time, dose: 0.5 mg/kg/injection, schedule: Q01DX009 (ip), vehicle: saline) is 120 % of control and 111 % of control; the T/C (endpoint: mean survival time, dose: 0.5 mg/kg/injection, schedule: Q01DX009 (ip), vehicle: water) was 110 % of control; the T/C (endpoint: mean survival time, dose: 1.0 mg/kg/injection, schedule: Q01DX009 (ip), vehicle: saline) was 105 % of control; the T/C (endpoint: mean survival time, dose: 1.0 mg/kg/injection, schedule: Q01DX009 (ip), vehicle: water) was 119 % of control; the T/C (endpoint: mean survival time, dose: 2.0 mg/kg/injection, schedule: Q01DX009 (ip), vehicle: saline) was 102 % of control. In addition, the T/C was 161 % of control (endpoint: mean survival time, dose: 4.0 mg/kg/injection, schedule: Q01DX009 (ip), vehicle: saline); 88 % of control and 103 % of control (endpoint: mean survival time, dose: 8.0 mg/kg/injection, schedule: Q01DX009 (ip), vehicle: saline); 88 % of control (endpoint: mean survival time, dose: 8.0 mg/kg/injection, schedule: Q01DX009 (ip), vehicle: water).

In the case of `Cc1cn(C2CC3OP(=O)(OCc4ccccc4)OCC3O2)c(=O)[nH]c1=O` (stereo not given), the T/C by setting is: (endpoint: median survival time, dose: 12.5 mg/kg/injection, schedule: Q01DX005 (ip), vehicle: distilled water + Tween-80) 100 % of control; (endpoint: median survival time, dose: 25.0 mg/kg/injection, schedule: Q01DX005 (ip), vehicle: distilled water + Tween-80) 101 % of control; (endpoint: median survival time, dose: 50.0 mg/kg/injection, schedule: Q01DX005 (ip), vehicle: distilled water + Tween-80) 102 % of control; (endpoint: median survival time, dose: 100.0 mg/kg/injection, schedule: Q01DX005 (ip), vehicle: distilled water + Tween-80) 104 % of control; (endpoint: median survival time, dose: 200.0 mg/kg/injection, schedule: Q01DX005 (ip), vehicle: distilled water + Tween-80) 98 % of control.

Source of the values: PubChem BioAssay AID256 (DTP/NCI, 2004).
